Here are results for 16 compounds from paper PMC7583898, “Novel Harmicines with Improved Potency against Plasmodium” (Molecules, 2020).

Like-named read-outs stand apart in the source and are kept apart here. A value given as a limit tells only on which side of the number the result lay.

In assay [1] the test system is P. falciparum erythrocytic stage, Pf3D7 (chloroquine-sensitive) strain. The experiment in a line: In vitro drug sensitivity assay against erythrocytic stage of P. falciparum, Pf3D7 strain (HRP2-ELISA). Type of assay: cell-based. The conditions noted are these: Plasmodium falciparum, mean ± SD. As for the experimental part:
(§1) The antiplasmodial activity of harmicines 5 and 6 was evaluated against two laboratory P. falciparum strains (3D7 – CQ-sensitive, and Dd2 – CQ-resistant), as previously described, using the histidine-rich protein 2 (HRP2) assay. […] After three days of incubation at 37 °C, 5% CO2 and 5% oxygen, plates were frozen until analyzed by HRP2-ELISA. All compounds were evaluated in duplicate in at least two independent experiments. The IC50 was determined by nonlinear regression analysis of log concentration–response curves using the drc package v0.9.0 of R v2.6.1 [22].

Assay [2] concerns P. falciparum erythrocytic stage, PfDd2 (chloroquine-resistant) strain. The experiment in a line: In vitro drug sensitivity assay against erythrocytic stage of P. falciparum, PfDd2 strain (HRP2-ELISA). Format: cell-based. Conditions: Plasmodium falciparum, mean ± SD. How it is done:
as §1
For orientation: An ELISA detects its analyte on a solid surface through an enzyme-linked reagent.

Assay [3] concerns human liver hepatocellular carcinoma cell line (HepG2). The experiment in a line: In vitro cytotoxicity assay (neutral red). The conditions noted are these: for IC50: Homo sapiens, HepG2, 24 h, neutral red, one day incubation, mean ± SD; for SI, selectivity index: ratio between IC50 (HepG2) and IC50 (Pf3D7). Format: cell-based. As for the experimental part:
A cytotoxicity assay was performed using the neutral red assay, as described previously, against human liver hepatocellular carcinoma cell line (HepG2) (Table 1). For the safety assessment, a selectivity index (SI) for each compound was calculated as the fractional ratio between the IC50 values for HepG2 and P. falciparum Pf3D7 strain (Table 2). In general, N-harmicines 5 are less cytotoxic than O-harmicines 6, which is in agreement with the results obtained for triazole-type harmicines. Furthermore, all N-harmicines, but only two O-harmicines, 6d and 6f, have more favorable SIs than the parent compound harmine (SI = 30). […] Compound 5b, with a m-fluorine substituent in the cinnamic scaffold, exerted the highest selectivity (SI = 773), followed by 5a, an amide with unsubstituted cinnamic acid (SI = 715).
Cytotoxicity against a human cell line (HepG2) was evaluated using the neutral red assay. In brief, human cells were seeded to a 96 well plate in complete culture medium, before on the following day a serial dilution of the respective compound was added. After one day of incubation, cytotoxicity was evaluated by the addition of Neutral Red, subsequent lysis of cells and the measurement of absorbance in a plate reader. The IC50 was determined as for the in vitro drug assay against P. falciparum. To assess the safety of a compound, SI was calculated as the fractional ratio between the IC50 values for HepG2 and the P. falciparum 3D7 strain.

Assay [4] relates to P. falciparum erythrocytic stage, PfDd2 (chloroquine-resistant) strain. The conditions noted are these: ref [15]; cited from earlier work.
Assay [5] deals with human liver hepatocellular carcinoma cell line (HepG2). Details: method as in PMID 31812035. Conditions: ref [15]; cited from earlier work.
Assay [6] concerns P. falciparum erythrocytic stage, Pf3D7 (chloroquine-sensitive) strain. On the set-up: method as in PMID 31812035. Conditions: ref [15]; cited from earlier work.

As usually defined, the IC50 is the concentration needed to halve the response being measured. In the case of `Cc1nccc2c1[nH]c1cc(OCCNC(=O)C=Cc3ccccc3)ccc12` [6a, N-(2-((1-methyl-9H-pyrido[3,4-b]indol-7-yl)oxy)ethyl)cinnamamide], the results for the IC50 in assay [1], in assay [2] and in assay [3] were 980 ± 120 nM, 4700 ± 2650 nM and 12700 ± 660 nM, respectively. In addition, the “SI, selectivity index” value in assay [3] is on record as 13.

On to `Cc1nccc2c1[nH]c1cc(OCCNC(=O)/C=C/c3ccc(Cl)cc3)ccc12` [6e, (E)-3-(4-chlorophenyl)-N-(2-((1-methyl-9H-pyrido[3,4-b]indol-7-yl)oxy)ethyl)acrylamide], for which the figures for the IC50 in assay [1], in assay [2] and in assay [3] were 320 ± 30 nM, 400 ± 240 nM and 7720 ± 3040 nM, respectively. The “SI, selectivity index” value in assay [3] is reported as 24.

As for `C/C(=C\c1ccccc1)C(=O)NCCOc1ccc2c(c1)[nH]c1c(C)nccc12` [6h, (E)-2-methyl-N-(2-((1-methyl-9H-pyrido[3,4-b]indol-7-yl)oxy)ethyl)-3-phenylacrylamide], the results for the IC50 in assay [1], in assay [2] and in assay [3] were 6780 ± 720 nM, 19500 ± 11800 nM and 61300 ± 2750 nM, respectively. The “SI, selectivity index” value in assay [3] worked out at 9.

Take `Cc1nccc2c1[nH]c1cc(OCCNC(=O)/C=C/c3cccc(Br)c3)ccc12` [6c, (E)-3-(3-bromophenyl)-N-(2-((1-methyl-9H-pyrido[3,4-b]indol-7-yl)oxy)ethyl)acrylamide]: the IC50 in assay [1] stood at 370 ± 220 nM; in assay [2], 480 ± 280 nM; in assay [3] it was 6110 ± 2070 nM. For the same compound, in assay [3], the “SI, selectivity index” value turned out to be 16.

In the case of `Cc1nccc2c1[nH]c1cc(OCCNC(=O)/C=C/c3ccc(F)cc3)ccc12` [6d, (E)-3-(4-fluorophenyl)-N-(2-((1-methyl-9H-pyrido[3,4-b]indol-7-yl)oxy)ethyl)acrylamide], the 50% inhibitory concentration (IC50) is 150 ± 60 nM in assay [1], 690 ± 180 nM in assay [2] and 7630 ± 2470 nM in assay [3]. Further, in assay [3], the “SI, selectivity index” value was determined as 51.

With `Cc1nccc2c1[nH]c1cc(OCCNC(=O)/C=C/c3cccc(F)c3)ccc12` [6b, (E)-3-(3-fluorophenyl)-N-(2-((1-methyl-9H-pyrido[3,4-b]indol-7-yl)oxy)ethyl)acrylamide], the half-maximal inhibitory concentration (IC50) in assay [1] came out at 2750 ± 1600 nM; in assay [2], 5010 ± 830 nM; in assay [3], 12900 ± 3310 nM. For the same compound, the “SI, selectivity index” value in assay [3] is 5.

Take `COc1ccc2c(c1)[nH]c1c(C)nccc12` [Harmine, harmine]: the IC50 in assay [4] is over 27700 nM; in assay [5], over 250000 nM.

Take `COc1ccc2c3ccnc(C)c3n(CCNC(=O)/C=C/c3cccc(F)c3)c2c1` [5b, (E)-3-(3-fluorophenyl)-N-(2-(7-methoxy-1-methyl-9H-pyrido[3,4-b]indol-9-yl)ethyl)acrylamide]: the IC50 turned out to be 70 ± 30 nM in assay [1], 780 ± 320 nM in assay [2] and 54100 ± 13400 nM in assay [3]. Also, the “SI, selectivity index” value in assay [3] was 773.

As for `COc1ccc2c3ccnc(C)c3n(CCNC(=O)/C=C/c3ccc(F)cc3)c2c1` [5d, (E)-3-(4-fluorophenyl)-N-(2-(7-methoxy-1-methyl-9H-pyrido[3,4-b]indol-9-yl)ethyl)acrylamide], the IC50 in assay [1] amounted to 90 ± 60 nM; in assay [2], 330 ± 110 nM; in assay [3], 21000 ± 880 nM. Moreover, in assay [3], the “SI, selectivity index” value was 233.

Take `CCN(CC)CCCC(C)Nc1ccnc2cc(Cl)ccc12` (stereo not drawn) [CQ, chloroquine]: the IC50 is 3 ± 2 nM in assay [6] and 200 ± 100 nM in assay [4].

In the case of `COc1ccc2c3ccnc(C)c3n(CCNC(=O)/C=C/c3cccc(Br)c3)c2c1` [5c, (E)-3-(3-bromophenyl)-N-(2-(7-methoxy-1-methyl-9H-pyrido[3,4-b]indol-9-yl)ethyl)acrylamide], the IC50 in assay [1] was found to be 70 ± 30 nM; in assay [2], 410 ± 10 nM; in assay [3], 2880 ± 420 nM. In addition, in assay [3], the “SI, selectivity index” value came to 41.

With `COc1ccc2c3ccnc(C)c3n(CCNC(=O)C=Cc3ccccc3)c2c1` [5a, N-(2-(7-methoxy-1-methyl-9H-pyrido[3,4-b]indol-9-yl)ethyl)cinnamamide], the IC50 in assay [1] was found to be 490 ± 250 nM; in assay [2], 1110 ± 150 nM; in assay [3], 350000 ± 13000 nM. The “SI, selectivity index” value in assay [3] is reported as 715.

As for `Cc1nccc2c1[nH]c1cc(OCCNC(=O)/C=C/c3ccccc3F)ccc12` [6g, (E)-3-(2-fluorophenyl)-N-(2-((1-methyl-9H-pyrido[3,4-b]indol-7-yl)oxy)ethyl)acrylamide], the IC50 in assay [1] came out at 930 ± 280 nM; in assay [2], 3920 ± 1350 nM; in assay [3], 16200 ± 1860 nM. In assay [3], the “SI, selectivity index” value turned out to be 17.

Regarding `COc1ccc2c3ccnc(C)c3n(CCNC(=O)/C=C/c3ccc(Cl)cc3)c2c1` [5e, (E)-3-(4-chlorophenyl)-N-(2-(7-methoxy-1-methyl-9H-pyrido[3,4-b]indol-9-yl)ethyl)acrylamide], the values for the IC50 in assay [1], in assay [2] and in assay [3] were 40 ± 20 nM, 170 ± 10 nM and 2910 ± 1750 nM, respectively. Besides, the “SI, selectivity index” value in assay [3] worked out at 73.

For the compound `COc1ccc(/C=C/C(=O)NCCn2c3cc(OC)ccc3c3ccnc(C)c32)cc1` [5f, (E)-N-(2-(7-methoxy-1-methyl-9H-pyrido[3,4-b]indol-9-yl)ethyl)-3-(4-methoxyphenyl)acrylamide], the values for the IC50 in assay [1], in assay [2] and in assay [3] were 260 ± 1 nM, 490 ± 240 nM and 74700 ± 7610 nM, respectively. Moreover, the “SI, selectivity index” value in assay [3] was 287.

Take `COc1ccc(/C=C/C(=O)NCCOc2ccc3c(c2)[nH]c2c(C)nccc23)cc1` [6f, (E)-3-(4-methoxyphenyl)-N-(2-((1-methyl-9H-pyrido[3,4-b]indol-7-yl)oxy)ethyl)acrylamide]: the IC50 in assay [1] worked out at 210 ± 140 nM; in assay [2], 1090 ± 490 nM; in assay [3] it was 10500 ± 430 nM. In addition, the “SI, selectivity index” value in assay [3] is listed as 50.
